From ChEMBL document CHEMBL2417377, “Hit-to-lead optimization and kinase selectivity of imidazo[1,2-a]quinoxalin-4-amine derived JNK1 inhibitors” (Bioorg Med Chem Lett, 2013)
Values belong to the compound of their own block, whether it stands above or below them.

Assays:
[1] = Inhibition of PITSLRE in human PC3 cell lysates at 30 uM using desthiobiotin-tagged ATP probe AX9989 followed by trypsinization by LC/MS analysis; assay type: cell-free; conditions: PC-3
[2] = biological target: T1, Phosphatidylinositol 5-phosphate 4-kinase type-2 gamma (Homo sapiens) (UniProt Q8TBX8); experiment: Inhibition of PIP4K2C in human PC3 cell lysates at 30 uM using desthiobiotin-tagged ATP probe AX9989 followed by trypsinization by LC/MS analysis; conditions: PC-3
T1 sequence (whole entry): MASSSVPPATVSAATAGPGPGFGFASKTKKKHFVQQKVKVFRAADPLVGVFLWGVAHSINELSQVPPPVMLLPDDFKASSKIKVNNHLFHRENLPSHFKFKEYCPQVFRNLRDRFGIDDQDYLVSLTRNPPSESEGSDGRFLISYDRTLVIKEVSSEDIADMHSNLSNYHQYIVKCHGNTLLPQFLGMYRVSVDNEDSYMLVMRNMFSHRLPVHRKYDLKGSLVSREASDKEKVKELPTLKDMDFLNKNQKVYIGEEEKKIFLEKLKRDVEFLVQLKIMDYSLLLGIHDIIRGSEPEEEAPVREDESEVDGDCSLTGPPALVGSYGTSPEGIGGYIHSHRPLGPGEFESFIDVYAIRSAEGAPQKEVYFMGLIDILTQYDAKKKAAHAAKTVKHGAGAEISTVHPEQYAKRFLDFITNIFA

[3] = biological target: T2, Eukaryotic translation initiation factor 2-alpha kinase 3 (Homo sapiens) (UniProt Q9NZJ5); experiment: Inhibition of PEK in human PC3 cell lysates at 30 uM using desthiobiotin-tagged ATP probe AX9989 followed by trypsinization by LC/MS analysis; conditions: PC-3
T2 sequence (whole entry): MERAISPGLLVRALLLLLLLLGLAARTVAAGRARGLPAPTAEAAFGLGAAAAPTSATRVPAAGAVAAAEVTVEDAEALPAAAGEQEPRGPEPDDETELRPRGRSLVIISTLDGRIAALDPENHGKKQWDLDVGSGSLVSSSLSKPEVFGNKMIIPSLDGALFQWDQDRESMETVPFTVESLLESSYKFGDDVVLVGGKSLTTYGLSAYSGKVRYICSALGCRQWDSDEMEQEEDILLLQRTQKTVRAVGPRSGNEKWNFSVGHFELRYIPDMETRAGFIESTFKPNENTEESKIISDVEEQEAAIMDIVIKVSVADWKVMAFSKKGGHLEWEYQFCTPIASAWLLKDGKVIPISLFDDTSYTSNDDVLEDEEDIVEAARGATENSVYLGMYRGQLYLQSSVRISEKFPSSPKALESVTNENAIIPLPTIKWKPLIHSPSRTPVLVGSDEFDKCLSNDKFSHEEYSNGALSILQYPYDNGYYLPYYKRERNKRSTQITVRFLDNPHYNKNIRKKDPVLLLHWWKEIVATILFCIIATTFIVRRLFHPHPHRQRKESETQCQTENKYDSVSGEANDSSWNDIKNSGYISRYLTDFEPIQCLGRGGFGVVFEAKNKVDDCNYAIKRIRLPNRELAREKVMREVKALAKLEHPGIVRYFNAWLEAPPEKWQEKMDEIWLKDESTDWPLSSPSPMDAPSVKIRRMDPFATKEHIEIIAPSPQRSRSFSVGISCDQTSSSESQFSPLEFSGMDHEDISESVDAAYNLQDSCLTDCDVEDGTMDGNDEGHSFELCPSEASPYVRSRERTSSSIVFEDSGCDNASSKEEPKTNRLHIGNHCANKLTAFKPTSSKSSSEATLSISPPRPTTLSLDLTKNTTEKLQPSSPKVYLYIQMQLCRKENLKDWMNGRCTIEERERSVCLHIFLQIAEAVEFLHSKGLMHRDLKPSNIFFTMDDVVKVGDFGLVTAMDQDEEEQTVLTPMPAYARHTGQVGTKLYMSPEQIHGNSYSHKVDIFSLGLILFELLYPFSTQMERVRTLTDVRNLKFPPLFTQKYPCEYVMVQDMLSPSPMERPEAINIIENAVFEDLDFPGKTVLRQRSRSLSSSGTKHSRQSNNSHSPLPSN

[4] = biological target: Cyclin-dependent kinase 16 (Homo sapiens) (UniProt Q00536); experiment: Inhibition of PCTAIRE1 in human PC3 cell lysates at 30 uM using desthiobiotin-tagged ATP probe AX9989 followed by trypsinization by LC/MS analysis; conditions: PC-3
Cyclin-dependent kinase 16 (Homo sapiens), sequence (Q00536 whole entry): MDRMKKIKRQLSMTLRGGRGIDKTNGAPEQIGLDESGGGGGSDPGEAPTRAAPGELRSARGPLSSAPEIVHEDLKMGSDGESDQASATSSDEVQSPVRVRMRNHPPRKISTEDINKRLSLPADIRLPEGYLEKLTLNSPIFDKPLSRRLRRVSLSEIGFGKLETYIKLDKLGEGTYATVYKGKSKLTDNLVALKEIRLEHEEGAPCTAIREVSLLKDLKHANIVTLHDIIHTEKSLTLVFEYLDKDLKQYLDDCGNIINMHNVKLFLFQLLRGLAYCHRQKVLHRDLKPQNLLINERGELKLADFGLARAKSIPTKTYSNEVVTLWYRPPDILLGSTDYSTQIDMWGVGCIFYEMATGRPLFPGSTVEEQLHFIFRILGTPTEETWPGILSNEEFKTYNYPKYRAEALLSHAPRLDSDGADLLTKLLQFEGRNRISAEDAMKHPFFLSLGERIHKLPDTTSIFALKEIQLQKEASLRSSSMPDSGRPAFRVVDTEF

[5] = biological target: Cyclin-dependent kinase 10 (Homo sapiens) (UniProt Q15131); experiment: Inhibition of CDK10 in human PC3 cell lysates at 30 uM using desthiobiotin-tagged ATP probe AX9989 followed by trypsinization by LC/MS analysis; conditions: PC-3
Cyclin-dependent kinase 10 (Homo sapiens), sequence (Q15131 whole entry): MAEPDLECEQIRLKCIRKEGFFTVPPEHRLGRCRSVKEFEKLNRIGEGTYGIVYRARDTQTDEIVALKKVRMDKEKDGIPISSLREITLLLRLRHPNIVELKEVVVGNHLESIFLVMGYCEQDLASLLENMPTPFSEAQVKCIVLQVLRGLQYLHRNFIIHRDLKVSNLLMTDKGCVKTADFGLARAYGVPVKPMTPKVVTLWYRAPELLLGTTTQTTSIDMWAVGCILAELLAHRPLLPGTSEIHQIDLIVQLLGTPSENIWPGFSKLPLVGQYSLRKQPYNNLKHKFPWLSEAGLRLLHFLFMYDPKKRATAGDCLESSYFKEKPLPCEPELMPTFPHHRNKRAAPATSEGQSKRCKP

[6] = biological target: Casein kinase II subunit alpha' (Homo sapiens) (UniProt P19784); experiment: Inhibition of CK2alpha2 in human PC3 cell lysates at 30 uM using desthiobiotin-tagged ATP probe AX9989 followed by trypsinization by LC/MS analysis; conditions: PC-3
Casein kinase II subunit alpha' (Homo sapiens), sequence (P19784 whole entry, looked up): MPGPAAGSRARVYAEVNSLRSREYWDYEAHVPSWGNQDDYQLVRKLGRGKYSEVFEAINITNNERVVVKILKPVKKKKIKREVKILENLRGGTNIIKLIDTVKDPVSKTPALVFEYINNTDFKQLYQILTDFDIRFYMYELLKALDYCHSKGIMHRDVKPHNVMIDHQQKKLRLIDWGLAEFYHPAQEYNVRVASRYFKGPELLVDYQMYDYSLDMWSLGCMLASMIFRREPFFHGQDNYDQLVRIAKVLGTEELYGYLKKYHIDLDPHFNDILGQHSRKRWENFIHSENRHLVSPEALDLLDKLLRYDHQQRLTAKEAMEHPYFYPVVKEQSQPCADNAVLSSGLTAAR

[7] = biological target: T3, Serine/threonine-protein kinase STK11 (Homo sapiens) (UniProt Q15831); experiment: Inhibition of LKB1 in human PC3 cell lysates at 30 uM using desthiobiotin-tagged ATP probe AX9989 followed by trypsinization by LC/MS analysis; conditions: PC-3
T3 sequence (whole entry): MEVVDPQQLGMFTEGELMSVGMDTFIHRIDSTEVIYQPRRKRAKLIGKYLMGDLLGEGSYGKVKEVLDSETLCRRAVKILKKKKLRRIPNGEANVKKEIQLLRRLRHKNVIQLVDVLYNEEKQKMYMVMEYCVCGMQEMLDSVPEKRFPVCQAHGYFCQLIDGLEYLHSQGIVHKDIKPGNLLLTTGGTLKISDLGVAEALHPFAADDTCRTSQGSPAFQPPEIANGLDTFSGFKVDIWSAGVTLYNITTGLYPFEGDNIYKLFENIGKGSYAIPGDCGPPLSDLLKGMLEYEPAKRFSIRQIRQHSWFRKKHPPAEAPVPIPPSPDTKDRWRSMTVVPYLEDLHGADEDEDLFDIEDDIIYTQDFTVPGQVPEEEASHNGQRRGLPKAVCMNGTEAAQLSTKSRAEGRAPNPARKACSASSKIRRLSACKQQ

[8] = biological target: Microtubule-associated serine/threonine-protein kinase 3 (Homo sapiens, UniProt O60307); experiment: Inhibition of MAST3 in human PC3 cell lysates at 30 uM using desthiobiotin-tagged ATP probe AX9989 followed by trypsinization by LC/MS analysis; conditions: PC-3
[9] = biological target: Cyclin-dependent kinase 9 (Homo sapiens) (UniProt P50750); experiment: Inhibition of CDK9 in human PC3 cell lysates at 30 uM using desthiobiotin-tagged ATP probe AX9989 followed by trypsinization by LC/MS analysis; conditions: PC-3
Cyclin-dependent kinase 9 (Homo sapiens), sequence (P50750 whole entry): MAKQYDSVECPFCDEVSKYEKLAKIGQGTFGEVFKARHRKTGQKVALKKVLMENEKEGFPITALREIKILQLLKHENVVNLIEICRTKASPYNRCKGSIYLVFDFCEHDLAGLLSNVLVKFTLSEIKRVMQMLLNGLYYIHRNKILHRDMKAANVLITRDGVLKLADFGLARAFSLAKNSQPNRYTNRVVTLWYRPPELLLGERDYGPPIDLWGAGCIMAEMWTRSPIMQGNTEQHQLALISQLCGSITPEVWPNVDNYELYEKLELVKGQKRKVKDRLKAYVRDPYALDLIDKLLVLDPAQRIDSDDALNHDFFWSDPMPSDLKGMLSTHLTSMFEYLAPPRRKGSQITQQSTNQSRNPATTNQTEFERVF

[10] = biological target: MAST1/MAST2 (Homo sapiens) (UniProt Q9Y2H9+Q6P0Q8); experiment: Inhibition of MAST1/2 in human HuH7 cell lysates at 10 uM; assay type: protein assay; conditions: Huh-7
MAST1/MAST2 (Homo sapiens), sequence (Q6P0Q8 whole entry, looked up): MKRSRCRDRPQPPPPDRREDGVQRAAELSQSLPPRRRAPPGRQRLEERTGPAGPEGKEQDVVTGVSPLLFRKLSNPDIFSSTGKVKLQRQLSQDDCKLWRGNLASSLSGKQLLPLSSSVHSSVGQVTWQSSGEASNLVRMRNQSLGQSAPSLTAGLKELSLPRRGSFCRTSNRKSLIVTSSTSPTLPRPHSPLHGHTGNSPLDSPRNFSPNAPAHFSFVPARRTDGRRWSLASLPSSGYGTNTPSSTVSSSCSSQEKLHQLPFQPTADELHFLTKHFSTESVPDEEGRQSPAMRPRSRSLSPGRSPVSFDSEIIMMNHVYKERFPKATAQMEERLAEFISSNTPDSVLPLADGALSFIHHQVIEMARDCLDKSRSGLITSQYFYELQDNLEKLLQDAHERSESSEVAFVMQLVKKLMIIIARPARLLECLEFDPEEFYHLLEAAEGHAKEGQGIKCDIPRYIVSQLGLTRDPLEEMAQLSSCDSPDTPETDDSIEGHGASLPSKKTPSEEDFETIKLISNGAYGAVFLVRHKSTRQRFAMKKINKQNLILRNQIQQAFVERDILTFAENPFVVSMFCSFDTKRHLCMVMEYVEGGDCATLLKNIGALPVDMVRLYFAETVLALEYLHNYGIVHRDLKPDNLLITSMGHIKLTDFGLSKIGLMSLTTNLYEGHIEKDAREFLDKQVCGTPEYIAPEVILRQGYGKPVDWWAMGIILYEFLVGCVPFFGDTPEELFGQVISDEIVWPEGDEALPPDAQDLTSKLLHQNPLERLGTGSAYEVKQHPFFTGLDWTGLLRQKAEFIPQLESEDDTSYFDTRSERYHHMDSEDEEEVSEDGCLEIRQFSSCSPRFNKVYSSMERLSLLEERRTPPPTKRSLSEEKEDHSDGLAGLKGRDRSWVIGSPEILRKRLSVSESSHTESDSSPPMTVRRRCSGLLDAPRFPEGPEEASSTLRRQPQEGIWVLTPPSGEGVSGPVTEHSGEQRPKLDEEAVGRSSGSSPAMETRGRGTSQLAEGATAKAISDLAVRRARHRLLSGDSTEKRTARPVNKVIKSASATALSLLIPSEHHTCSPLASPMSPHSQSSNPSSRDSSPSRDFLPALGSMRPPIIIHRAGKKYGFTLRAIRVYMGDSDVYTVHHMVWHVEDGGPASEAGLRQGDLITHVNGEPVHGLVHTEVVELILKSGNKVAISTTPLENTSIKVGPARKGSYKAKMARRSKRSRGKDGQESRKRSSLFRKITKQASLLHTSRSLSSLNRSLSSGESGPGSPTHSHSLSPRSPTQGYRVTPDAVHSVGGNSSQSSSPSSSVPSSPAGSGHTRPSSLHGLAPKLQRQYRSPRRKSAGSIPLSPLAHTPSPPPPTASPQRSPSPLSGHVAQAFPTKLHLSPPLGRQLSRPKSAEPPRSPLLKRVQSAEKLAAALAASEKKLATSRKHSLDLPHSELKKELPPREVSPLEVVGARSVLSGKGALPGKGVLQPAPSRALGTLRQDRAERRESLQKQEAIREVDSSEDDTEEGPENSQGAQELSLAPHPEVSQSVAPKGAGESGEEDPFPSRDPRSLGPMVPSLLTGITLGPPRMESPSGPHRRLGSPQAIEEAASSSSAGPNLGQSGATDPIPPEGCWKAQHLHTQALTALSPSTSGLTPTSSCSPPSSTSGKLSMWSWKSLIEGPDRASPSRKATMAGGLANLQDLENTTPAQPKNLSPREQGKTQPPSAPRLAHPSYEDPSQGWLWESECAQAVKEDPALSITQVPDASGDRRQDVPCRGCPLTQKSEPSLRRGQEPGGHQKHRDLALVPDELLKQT
MAST1/MAST2 (Homo sapiens), sequence (Q9Y2H9 whole entry, looked up): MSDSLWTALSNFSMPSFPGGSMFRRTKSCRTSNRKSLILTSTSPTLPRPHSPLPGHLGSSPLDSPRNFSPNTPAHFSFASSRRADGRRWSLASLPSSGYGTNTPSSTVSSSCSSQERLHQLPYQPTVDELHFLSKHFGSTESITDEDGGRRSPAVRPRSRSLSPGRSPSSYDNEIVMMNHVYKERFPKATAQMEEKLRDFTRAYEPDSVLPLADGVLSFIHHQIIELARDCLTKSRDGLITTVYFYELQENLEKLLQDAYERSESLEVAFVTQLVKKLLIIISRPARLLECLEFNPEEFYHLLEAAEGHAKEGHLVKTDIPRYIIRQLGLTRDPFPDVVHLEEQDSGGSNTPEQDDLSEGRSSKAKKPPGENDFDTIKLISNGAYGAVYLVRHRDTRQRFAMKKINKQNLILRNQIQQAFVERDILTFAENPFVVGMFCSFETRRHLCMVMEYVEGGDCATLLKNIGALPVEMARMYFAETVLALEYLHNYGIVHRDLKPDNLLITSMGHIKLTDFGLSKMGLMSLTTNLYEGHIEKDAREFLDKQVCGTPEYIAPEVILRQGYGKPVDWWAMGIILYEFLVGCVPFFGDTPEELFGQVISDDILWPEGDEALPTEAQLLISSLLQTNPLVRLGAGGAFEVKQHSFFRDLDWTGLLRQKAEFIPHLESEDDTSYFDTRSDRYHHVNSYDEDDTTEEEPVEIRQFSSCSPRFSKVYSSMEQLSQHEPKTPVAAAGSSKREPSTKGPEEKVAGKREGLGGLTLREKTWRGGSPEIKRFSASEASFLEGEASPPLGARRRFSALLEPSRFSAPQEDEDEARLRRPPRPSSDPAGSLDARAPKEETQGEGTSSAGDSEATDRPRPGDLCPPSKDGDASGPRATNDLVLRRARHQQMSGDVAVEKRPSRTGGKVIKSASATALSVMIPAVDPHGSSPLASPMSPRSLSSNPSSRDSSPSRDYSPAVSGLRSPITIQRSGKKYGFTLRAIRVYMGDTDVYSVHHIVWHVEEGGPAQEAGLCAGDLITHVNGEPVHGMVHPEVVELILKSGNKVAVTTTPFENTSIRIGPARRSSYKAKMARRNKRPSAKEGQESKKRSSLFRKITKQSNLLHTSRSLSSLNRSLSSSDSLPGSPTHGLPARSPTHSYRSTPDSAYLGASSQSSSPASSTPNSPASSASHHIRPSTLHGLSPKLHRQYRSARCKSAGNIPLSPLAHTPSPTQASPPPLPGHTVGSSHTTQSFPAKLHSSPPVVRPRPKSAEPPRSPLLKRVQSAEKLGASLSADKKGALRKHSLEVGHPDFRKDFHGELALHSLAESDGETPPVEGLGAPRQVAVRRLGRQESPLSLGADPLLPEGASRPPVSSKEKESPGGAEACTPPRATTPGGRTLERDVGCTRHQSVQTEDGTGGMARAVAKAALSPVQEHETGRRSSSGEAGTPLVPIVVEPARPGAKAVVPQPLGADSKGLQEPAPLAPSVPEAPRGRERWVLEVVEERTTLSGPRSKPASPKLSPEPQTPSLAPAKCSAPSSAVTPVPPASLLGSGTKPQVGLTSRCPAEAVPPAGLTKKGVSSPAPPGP

[11] = biological target: Mitogen-activated protein kinase 9 (Homo sapiens, UniProt P45984); experiment: Inhibition of JNK2 in human Jurkat cell lysates using desthiobiotin-tagged ATP probe AX9989 followed by trypsinization by LC/MS analysis

SMILES: O=C(NC1(c2ccccc2)CC1)c1ccc2nc(N[C@H]3CC[C@H](O)CC3)c3nccn3c2c1
inhibition [10]: > 86%

SMILES: O=C(NC1(c2ccc(F)cc2)CC1)c1ccc2nc(N[C@H]3CC[C@H](O)CC3)c3nccn3c2c1
inhibition [10]: 76%

SMILES: O=C(NC1(Cc2ccc(F)cc2)CC1)c1ccc2nc(N[C@H]3CC[C@H](O)CC3)c3nccn3c2c1
IC50 [11]: 120 nM

SMILES: CC[C@@H](NC(=O)c1ccc2nc(N[C@H]3CC[C@H](O)CC3)c3nccn3c2c1)c1ccccc1
IC50 [11]: 100 nM

SMILES: CCC[C@@H](NC(=O)c1ccc2nc(N[C@H]3CC[C@H](O)CC3)c3nccn3c2c1)c1ccccc1
inhibition [10]: 36.9%

SMILES: O=C(N[C@H](CO)c1ccccc1)c1ccc2nc(N[C@H]3CC[C@H](O)CC3)c3nccn3c2c1
inhibition [10]: 75.6%
IC50 [11]: 135 nM

Now from value to compound, other results behind:

inhibition [2]: < 35%
inhibition [3]: < 35%
inhibition [4]: < 35%
inhibition [5]: < 35%
inhibition [6]: < 35%
inhibition [7]: < 35%
inhibition [8]: < 35%
inhibition [9]: < 35%
SMILES: c1ccc(CNc2nc3ccccc3n3ccnc23)cc1
inhibition [1]: < 35%

inhibition [2]: < 35%
inhibition [3]: < 35%
inhibition [4]: < 35%
inhibition [5]: 37.2%
inhibition [6]: < 35%
inhibition [7]: < 35%
inhibition [8]: < 35%
inhibition [9]: 50.7%
SMILES: c1ccc2c(c1)nc(NC1CCCCC1)c1nccn12
inhibition [1]: < 35%

inhibition [2]: 52.6%
inhibition [3]: < 35%
inhibition [4]: < 35%
inhibition [5]: 35.7%
inhibition [6]: < 35%
inhibition [7]: < 35%
inhibition [8]: < 35%
inhibition [9]: < 35%
SMILES: c1ccc(CCNc2nc3ccccc3n3ccnc23)cc1
inhibition [1]: < 35%

inhibition [2]: 50.9%
inhibition [3]: 65%
inhibition [4]: 38.9%
inhibition [5]: 79.8%
inhibition [6]: 49.6%
inhibition [7]: 45.6%
inhibition [8]: < 35%
inhibition [9]: 90.7%
SMILES: O[C@H]1CC[C@H](Nc2nc3ccccc3n3ccnc23)CC1
inhibition [1]: 82.4%
